From PMC7764601 (Molecules, 2020)
Several values for one entry are separate records, joined by “and”; a condition that tells them apart may be missing. Equal values may be shown once. Marks after values point to notes of the source that are not given here.

What was measured:
Format in all cases: in vivo
mice [1] = assay: Spontaneous locomotor activity in mice (photoresistor actometers); conditions: for Number of impulses ± SEM (30min): i.p.
Experimental: (§1) The experiments were carried out on male albino Swiss mice (body weight 18–26 g). All of the animals were housed at constant humidity (60%) and temperature (25 °C) and kept on a 12 h light/dark cycle. Animals were fed a standard pellet diet with free access to tap water. All procedures were conducted according to Animal Care and Use Committee guidelines, and approved by the Ethical Committee of Jagiellonian University, Kraków.
(§2) Control and experimental groups consisted of 6–8 animals each. The investigated compounds were administered intraperitoneally as a suspension in 0.5% methylcellulose in a constant volume of 10 mL/kg.
Spontaneous locomotor activity in mice was measured in circular photoresistoractometers (32 cm in diameter). […] Thirty minutes after the injection of the investigated compounds, mice were placed in the actometers for 30 min. Each crossing of the light beam was recorded automatically. The amount of impulses was noted after 30 min.

mice [2] = assay: Thiopental anesthesia (thiopental-induced sleep); conditions: for Prolongation (%) of thiopental anesthesia / Duration of Anesthesia ± SEM: i.p.; for Duration of Anesthesia ± SEM: thiopental
Description: The pilot biological studies for imides 9 and 11 were supplemented with the determination of the effect of the intraperitoneal administration of the test compounds on the duration of thiopental-induced sleep. The mechanism and the degree of crossing the blood–brain barrier has not been precisely defined. The observed sedative effects may indicate good penetration of compounds into the central nervous system, which, however, has not been confirmed.
as §2

mice [3] = assay: “Hot plate” test in mice; conditions: hot plate, mice
Experimental: as §1, §2
(§3) The statistical significance was calculated using a Student’s t-test. The ED50 values and their confidence limits were calculated according to the method of Litchfield and Wilcoxon.
(§4) Pain reactivity was measured in two tests: “hot plate” test (according to the method of Eddy and Leimbach) and “writhing” test in mice (according to Hendershot and Forsaith).
Animals were placed individually on the metal plate, heated to 55 ± 1 °C. The latency time (s) to the pain reaction (licking of the hind paws or jumping) was recorded by a stop-watch. A cutoff time of 45 s was used to prevent tissue damage.

mice [4] = assay: “Writhing” test in mice (phenylbenzoquinone)
Experimental: as §1, §2, §3, §4
Then, after 25 min, the irritant (phenylbenzoquinone, 0.02% solution, ethanol-water, 5:95) was also administered intraperitoneally in a constant volume of 0.25 mL. Five min after the application of the irritant,a 10 min long period of observation started, in which the number of writhing episodes was counted.
The analgesic effect of individual doses was expressed in percent:(1) % Analgesic effect=100−∑ of writing incidents in experimental group/∑ of writhing incidents in control group×100

mice [5] = assay: in vivo; conditions: ED50 of the writhing test (Table 3) relative to LD50 i.p.
Experimental: as §1, §2

in vivo = conditions: male, albino Swiss, mouse, in vivo, ip; mice, intraperitoneal, mortality after 24 h; confidence limits in parentheses
Experimental: as §1, §2

## COc1nc(C)cc2c1C(=O)N(CCN1CCN(c3ccccc3)CC1)C2=O [Compound 9]
Mice [1]; Mus musculus, ip, confidence limits in parentheses, read-out: ED50 (mg/kg) ± SEM, spontaneous locomotor activity
  ED50: 18.8 mg/kg
Mice [1]; Mus musculus, ip, dose 4.68 mg/kg, read-out: Degree of motor inhibition (%)
  inhibition at 4.68 mg/kg: 22.6%
Mice [1]; Mus musculus, ip, dose 9.37 mg/kg (Table 9), read-out: % Inh. of locomotor activity
  inhibition at 9.37 mg/kg: 42.8%
Mice [1]; Mus musculus, ip, dose 18.75 mg/kg, read-out: Degree of motor inhibition (%)
  inhibition at 18.75 mg/kg: 45.9%
Mice [1]; Mus musculus, ip, dose 37.5 mg/kg, read-out: Degree of motor inhibition (%)
  inhibition at 37.5 mg/kg: 67.2%
Mice [1]; dose 18.75 mg/kg
  Number of impulses ± SEM (30min): 244 ± 45
Mice [1]; dose 37.5 mg/kg
  Number of impulses ± SEM (30min): 148 ± 32
Mice [1]; dose 93.75 mg/kg (as printed in Table S2)
  Number of impulses ± SEM (30min): 258 ± 47.4
Mice [2]; dose 9.375 mg/kg
  Prolongation (%) of thiopental anesthesia: 34.8%
  Duration of Anesthesia ± SEM: 69.4 ± 12 min
Mice [2]; dose 18.75 mg/kg
  Prolongation (%) of thiopental anesthesia: 96.5 * % and 96.5%
  Duration of Anesthesia ± SEM: 101.2 ± 28.4 min
Mice [2]; dose 37.5 mg/kg
  Prolongation (%) of thiopental anesthesia: 157.1 ** % and 157.1%
  Duration of Anesthesia ± SEM: 132.4 ± 27.8 min
Mice [2]; mouse, in vivo
  effect on duration of thiopental anesthesia (in words): extended the duration of thiopental anesthesia
Mice [3]; Mus musculus, ip, 0.5 h, dose 75 mg/kg, read-out: Prolonged Time (%)
  change in vivo at 75 mg/kg: 55%
Mice [3]; Mus musculus, ip, 0.5 h, dose 150 mg/kg, read-out: Prolonged Time (%)
  change in vivo at 150 mg/kg: 102%
Mice [3]; Mus musculus, ip, 0.5 h, dose 300 mg/kg, read-out: Prolonged Time (%)
  change in vivo at 300 mg/kg: 105%
Mice [3]; dose 75 mg/kg
  Time of Reaction to Pain Stimulus (s) ± SEM: 30.3 ± 2.7 s
Mice [3]; dose 150 mg/kg
  Time of Reaction to Pain Stimulus (s) ± SEM: 39.2 ± 5 s
Mice [3]; dose 300 mg/kg
  Time of Reaction to Pain Stimulus (s) ± SEM: 40.0 ± 4.4 s
Mice [4]; Mus musculus, ip, confidence limits in parentheses, read-out: ED50 (mg/kg) ± SEM, writhing test
  ED50: 3.25 mg/kg
Mice [4]; i.p., confidence limits in parentheses
  ED50 (mg/kg) ± SEM, writhing test: 3.67 mg/kg
Mice [4]; i.p., dose 4.68 mg/kg
  Mean no. of writhing ± SEM: 22.0 ± 4.6
Mice [4]; i.p., dose 9.375 mg/kg
  Mean no. of writhing ± SEM: 9.8 ± 1.8
Mice [4]; i.p., dose 18.75 mg/kg
  Mean no. of writhing ± SEM: 5.0 ± 2.0
Mice [4]; i.p., dose 37.5 mg/kg
  Mean no. of writhing ± SEM: 1.2 ± 0.7
Mice [5]
  analgesic ED50 as fraction of LD50: ≈ 1/408
In vivo
  LD50 at 24 h: 1500 mg/kg
